Here are results for 31 substances from patent US20170189504A1, “NOVEL PEPTIDES AND COMBINATION OF PEPTIDES FOR USE IN IMMUNOTHERAPY AGAINST VARIOUS CANCERS” (immatics biotechnologies GmbH, priority 2015, published 2017).

The test system of one assay is CD8+ T cells. The assay is described as follows: In vitro immunogenicity: T-cell priming with aAPCs loaded with peptide/MHC complexes and anti-CD28 antibody, pMHC multimer readout (Tables 19A, 19B). As to conditions: in vitro immunogenicity of HLA class I peptides, pMHC multimer readout after priming of CD8+ T cells. In kind it is cell-based, human. Here is the method: In an aspect, the peptides are pre-screened for immunogenicity before being included in the warehouse. By way of example, and not limitation, the immunogenicity of the peptides included in the warehouse is determined by a method comprising in vitro T-cell priming through repeated stimulations of CD8+ T cells from healthy donors with artificial antigen presenting cells loaded with peptide/MHC complexes and anti-CD28 antibody.
In order to obtain information regarding the immunogenicity of the TUMAPs of the present invention, the inventors performed investigations using an in vitro T-cell priming assay based on repeated stimulations of CD8+ T cells with artificial antigen presenting cells (aAPCs) loaded with peptide/MHC complexes and anti-CD28 antibody.
In order to perform in vitro stimulations by artificial antigen presenting cells loaded with peptide-MHC complex (pMHC) and anti-CD28 antibody, the inventors first isolated CD8+ T cells from fresh HLA-A*02 leukapheresis products via positive selection using CD8 microbeads (Miltenyi Biotec, Bergisch-Gladbach, Germany) of healthy donors obtained from the University clinics Mannheim, Germany, after informed consent.
PBMCs and isolated CD8+ lymphocytes were incubated in T-cell medium (TCM) until use consisting of RPMI-Glutamax (Invitrogen, Karlsruhe, Germany) supplemented with 10% heat inactivated human AB serum (PAN-Biotech, Aidenbach, Germany), 100 U/ml Penicillin/100 μg/ml Streptomycin (Cambrex, Cologne, Germany), 1 mM sodium pyruvate (CC Pro, Oberdorla, Germany), 20 μg/ml Gentamycin (Cambrex). 2.5 ng/ml IL7 (PromoCell, Heidelberg, Germany) and 10 U/ml IL-2 (Novartis Pharma, Nurnberg, Germany) were also added to the TCM at this step.
Generation of pMHC/anti-CD28 coated beads, T-cell stimulations and readout was performed in a highly defined in vitro system using four different pMHC molecules per stimulation condition and 8 different pMHC molecules per readout condition.
The purified co-stimulatory mouse IgG2a anti human CD28 Ab 9.3 (Jung et al., 1987) was chemically biotinylated using Sulfo-N-hydroxysuccinimidobiotin as recommended by the manufacturer (Perbio, Bonn, Germany). Beads used were 5.6 μm diameter streptavidin coated polystyrene particles (Bangs Laboratories, Illinois, USA).
pMHC used for positive and negative control stimulations were A*0201/MLA-001 (peptide […] (SEQ ID NO. 303) from modified Melan-A/MART-1) and A*0201/DDX5-001 ([…] from DDX5, SEQ ID NO. 304), respectively.
800.000 beads/200 μl were coated in 96-well plates in the presence of 4×12.5 ng different biotin-pMHC, washed and 600 ng biotin anti-CD28 were added subsequently in a volume of 200 μl. Stimulations were initiated in 96-well plates by co-incubating […] CD8+ T cells with 2×10^5 washed coated beads in 200 μl TCM supplemented with 5 ng/ml IL-12 (PromoCell) for 3 days at 37° C. Half of the medium was then exchanged by fresh TCM supplemented with 80 U/ml IL-2 and incubating was continued for 4 days at 37° C. This stimulation cycle was performed for a total of three times. For the pMHC multimer readout using 8 different pMHC molecules per condition, a two-dimensional combinatorial coding approach was used as previously described (Andersen et al., 2012) with minor modifications encompassing coupling to 5 different fluorochromes. Finally, multimeric analyses were performed by staining the cells with Live/dead near IR dye (Invitrogen, Karlsruhe, Germany), CD8-FITC antibody clone SK1 (BD, Heidelberg, Germany) and fluorescent pMHC multimers. For analysis, a BD LSRII SORP cytometer equipped with appropriate lasers and filters was used. Peptide specific cells were calculated as percentage of total CD8+ cells. Evaluation of multimeric analysis was done using the FlowJo software (Tree Star, Oreg., USA). In vitro priming of specific multimer+ CD8+ lymphocytes was detected by comparing to negative control stimulations.

Another assay concerns HLA-A*02. The assay is described as follows: MHC binding assay, UV-ligand exchange with β2m ELISA, HLA-A*02 (Table 20). Also noted: species or system human. The note with it: binding to HLA-A*02 ranged by peptide exchange yield (UV-ligand exchange, β2m ELISA). The essentials: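 Peptide–MHC complexes made by UV-ligand exchange of a UV-cleavable peptide, diluted 100-fold and captured on streptavidin plates. Stabilized complexes detected by HRP anti-β2m ELISA (1 h, 37° C, A450). Exchange yield derived against refolded HLA-A*02:01/MLA-001 monomer standards (15-500 ng/ml).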

The subject of the next assay is HLA-A*24. Nature of the assay: MHC binding assay, UV-ligand exchange with β2m ELISA, HLA-A*24 (Table 21). The note with it: binding to HLA-A*24 ranged by peptide exchange yield (UV-ligand exchange, β2m ELISA). Also noted: species or system human. An excerpt:
Candidate peptides for T cell based therapies according to the present invention were further tested for their MHC binding capacity (affinity). The individual peptide-MHC complexes were produced by UV-ligand exchange, where a UV-sensitive peptide is cleaved upon UV-irradiation, and exchanged with the peptide of interest as analyzed. Only peptide candidates that can effectively bind and stabilize the peptide-receptive MHC molecules prevent dissociation of the MHC complexes. To determine the yield of the exchange reaction, an ELISA was performed based on the detection of the light chain ((β2m) of stabilized MHC complexes. The assay was performed as generally described in Rodenko et al. (Rodenko et al., 2006).
96 well MAXISorp plates (NUNC) were coated over night with 2 ug/ml streptavidin in PBS at room temperature, washed 4× and blocked for 1 h at 37° C. in 2% BSA containing blocking buffer. Refolded HLA-A*02:01/MLA-001 monomers served as standards, covering the range of 15-500 ng/ml. Peptide-MHC monomers of the UV-exchange reaction were diluted 100 fold in blocking buffer. Samples were incubated for 1 h at 37° C., washed four times, incubated with 2 ug/ml HRP conjugated anti-β2m for 1 h at 37° C., washed again and detected with TMB solution that is stopped with […]. Absorption was measured at 450 nm. Candidate peptides that show a high exchange yield (preferably higher than 50%, most preferred higher than 75%) are generally preferred for a generation and production of antibodies or fragments thereof, and/or T cell receptors or fragments thereof, as they show sufficient avidity to the MHC molecules and prevent dissociation of the MHC complexes.

For the substance “26 (ALQEELTEL; listed as Homo sapiens) [compound 26]”, the “Wells positive [%]” value in the assay on CD8+ T cells is reported as “+ (<20% = +)”. In addition, the Peptide exchange result in the assay on HLA-A*02 is recorded as “+++ (50%-75% = +++)”.
On the same counts, the results for “27 (RLMEENWNA; listed as Homo sapiens) [compound 27]” are “+++ (50%-69% = +++)” and “+++ (50%-75% = +++)”.
For the substance “29 (YLLDPSITL; listed as Homo sapiens) [compound 29]”, the “Wells positive [%]” value in the assay with CD8+ T cells was “+ (<20% = +)”. In addition, the Peptide exchange entry in the assay on HLA-A*02 is recorded as “+++ (50%-75% = +++)”.
For “31 (TITETTVEV; listed as Homo sapiens) [compound 31]” the same measures were “+ (<20% = +)” and “+++ (50%-75% = +++)”.
On the same counts, the results for “35 (FLLPFSTVYL; listed as Homo sapiens) [compound 35]” are “+ (<20% = +)” and “+++ (50%-75% = +++)”.
Consider “90 (FLQDLEQRL; listed as Homo sapiens) [compound 90]”, for which, in the assay with CD8+ T cells, the “Wells positive [%]” value was “+ (<20% = +)”. The Peptide exchange entry with HLA-A*02 was “+++ (50%-75% = +++)”.
For the substance “92 (GLLFSLRSV; listed as Homo sapiens) [compound 92]”, the “Wells positive [%]” value in the assay on CD8+ T cells is given as “++ (20%-49% = ++)”. Further, the Peptide exchange entry with HLA-A*02 is reported as “++++ (≧75% = ++++)”.
For “96 (LLVSHLYLV; listed as Homo sapiens) [compound 96]” the same measures were “++ (20%-49% = ++)” and “++ (20%-49% = ++)”.
With “138 (ALLAKILQI; listed as Homo sapiens) [compound 138]”, the “Wells positive [%]” value with CD8+ T cells is “++ (20%-49% = ++)”. Moreover, the Peptide exchange result in the assay with HLA-A*02 is recorded as “+++ (50%-75% = +++)”.
On to “141 (FLDKVLVAA; listed as Homo sapiens) [compound 141]”, for which, in the assay on CD8+ T cells, the “Wells positive [%]” value is “+ (<20% = +)”. Besides, the Peptide exchange entry with HLA-A*02 is reported as “+++ (50%-75% = +++)”.
For “144 (ALLAFFPGL; listed as Homo sapiens) [compound 144]” the same measures were “+++ (50%-69% = +++)” and “+++ (50%-75% = +++)”.
On the same counts, the results for “149 (ILNTHITEL; listed as Homo sapiens) [compound 149]” are “+ (<20% = +)” and “+++ (50%-75% = +++)”.
For “150 (VLYDRPLKI; listed as Homo sapiens) [compound 150]” the same measures were “++ (20%-49% = ++)” and “+++ (50%-75% = +++)”.
Consider “151 (SVLDSTAKV; listed as Homo sapiens) [compound 151]”, for which the “Wells positive [%]” value with CD8+ T cells is given as “++ (20%-49% = ++)”. In the assay with HLA-A*02, the Peptide exchange entry is listed as “++ (20%-49% = ++)”.
As for “158 (HYSQELSLLYL; listed as Homo sapiens) [compound 158]”, in the assay with CD8+ T cells, the “Wells positive [%]” value is given as “+ (<20% = +)”. Also, the Peptide exchange result in the assay with HLA-A*24 is reported as “++++ (≧75% = ++++)”.
In the case of “159 (LYNKGFIYL; listed as Homo sapiens) [compound 159]”, the “Wells positive [%]” value with CD8+ T cells is given as “++++ (≧70% = ++++)”. Also, the Peptide exchange entry with HLA-A*24 is on record as “++++ (≧75% = ++++)”.
For “160 (VYTLDIPVL; listed as Homo sapiens) [compound 160]” the same measures were “++ (20%-49% = ++)” and “++++ (≧75% = ++++)”.
For “161 (IYLVSIPEL; listed as Homo sapiens) [compound 161]”, the “Wells positive [%]” value in the assay with CD8+ T cells was “++ (20%-49% = ++)”. In addition, the Peptide exchange entry in the assay on HLA-A*24 is given as “++++ (≧75% = ++++)”.
Consider “162 (VFTRVSSFL; listed as Homo sapiens) [compound 162]”, for which the “Wells positive [%]” value in the assay with CD8+ T cells is listed as “++ (20%-49% = ++)”. The Peptide exchange result in the assay on HLA-A*24 was “+++ (50%-75% = +++)”.
In the case of “163 (DYLKGLASF; listed as Homo sapiens) [compound 163]”, the “Wells positive [%]” value with CD8+ T cells is given as “+ (<20% = +)”. Moreover, the Peptide exchange entry in the assay on HLA-A*24 is “++++ (≧75% = ++++)”.
As to “165 (DYTTWTALL; listed as Homo sapiens) [compound 165]”, the “Wells positive [%]” value in the assay with CD8+ T cells was “+ (<20% = +)”. Further, the Peptide exchange result in the assay on HLA-A*24 is given as “++++ (≧75% = ++++)”.
Turning to “166 (YYVESGKLF; listed as Homo sapiens) [compound 166]”, the “Wells positive [%]” value with CD8+ T cells is listed as “+++ (50%-69% = +++)”. Further, the Peptide exchange result in the assay on HLA-A*24 was “++++ (≧75% = ++++)”.
With “229 (AILAHLNTV; listed as Homo sapiens) [compound 229]”, the “Wells positive [%]” value in the assay with CD8+ T cells is “++ (20%-49% = ++)”. Further, the Peptide exchange result in the assay with HLA-A*02 is reported as “++++ (≧75% = ++++)”.
In the case of “230 (KLQNIMMLL; listed as Homo sapiens) [compound 230]”, in the assay on CD8+ T cells, the “Wells positive [%]” value was “++++ (≧70% = ++++)”. Besides, in the assay with HLA-A*02, the Peptide exchange result is recorded as “++ (20%-49% = ++)”.
For “232 (KIFPAALQLV; listed as Homo sapiens) [compound 232]” the same measures were “++ (20%-49% = ++)” and “+++ (50%-75% = +++)”.
As to “233 (HLFDAFVSV; listed as Homo sapiens) [compound 233]”, the “Wells positive [%]” value in the assay with CD8+ T cells is on record as “++ (20%-49% = ++)”. In addition, the Peptide exchange entry with HLA-A*02 is given as “+++ (50%-75% = +++)”.
Consider “235 (KIIDFLSAL; listed as Homo sapiens) [compound 235]”, for which the “Wells positive [%]” value with CD8+ T cells is recorded as “+++ (50%-69% = +++)”. For the same substance, in the assay with HLA-A*02, the Peptide exchange result is listed as “+++ (50%-75% = +++)”.
“247 (ALYEGYATV; listed as Homo sapiens) [compound 247]”: the “Wells positive [%]” value with CD8+ T cells was “++ (20%-49% = ++)”. In addition, the Peptide exchange entry in the assay on HLA-A*02 was “+++ (50%-75% = +++)”.
For “248 (YLDRFLAGV; listed as Homo sapiens) [compound 248]” the same measures were “++ (20%-49% = ++)” and “++++ (≧75% = ++++)”.
For “249 (GLCERLVSL; listed as Homo sapiens) [compound 249]” the same measures were “+ (<20% = +)” and “++++ (≧75% = ++++)”.
On the same counts, the results for “251 (ALSVLRLAL; listed as Homo sapiens) [compound 251]” are “++ (20%-49% = ++)” and “+++ (50%-75% = +++)”.
